Reference: ChEMBL document CHEMBL1909046, “DrugMatrix in vitro pharmacology data”
pIC50, pKi: −log10 of the molar value.

What was measured:
Substance-K receptor = molecular target: T1, Substance-K receptor (Homo sapiens, UniProt P21452); assay type: cell membranes, CHO, Membrane; conditions: for IC50: cho; on all read-outs here: in other assays of this panel Not Active means under 50% inhibition at 10 µM
T1 sequence (P21452 whole entry): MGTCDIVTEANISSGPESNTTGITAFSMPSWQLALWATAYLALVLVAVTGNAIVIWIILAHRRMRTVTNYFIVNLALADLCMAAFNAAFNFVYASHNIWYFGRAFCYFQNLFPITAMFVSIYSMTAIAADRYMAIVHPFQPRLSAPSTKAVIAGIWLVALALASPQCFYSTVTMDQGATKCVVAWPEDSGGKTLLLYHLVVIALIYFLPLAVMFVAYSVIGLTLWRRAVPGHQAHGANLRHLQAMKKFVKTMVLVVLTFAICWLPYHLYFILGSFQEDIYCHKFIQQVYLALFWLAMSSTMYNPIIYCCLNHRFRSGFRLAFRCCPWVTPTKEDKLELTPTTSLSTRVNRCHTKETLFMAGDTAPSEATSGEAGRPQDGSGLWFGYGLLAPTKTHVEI

[1] = DRUGMATRIX: Tumor Necrosis Factor (TNF), Non-Selective radioligand binding (ligand: [125I] TNF-alpha); assay type: cell membranes, Membrane; conditions: u-937; Not Active = under 50% inhibition at 10 µM
[2] = molecular target: Sodium-dependent dopamine transporter (Homo sapiens, UniProt Q01959); assay: DRUGMATRIX: Dopamine Transporter radioligand binding (ligand: [125I] RTI-55); assay type: cell membranes, CHO-K1, Membrane; conditions: Not Active = under 50% inhibition at 10 µM; for IC50: cho-k1; for pIC50: read-out: IC50; for pKi: read-out: Ki
Melanocortin receptor 3 = Melanocortin receptor 3 (Homo sapiens, UniProt P41968); assay type: cell membranes, Membrane; conditions: hek293; further: in other assays of this panel Not Active means under 50% inhibition at 10 µM
[3] = molecular target: Platelet-activating factor receptor (Homo sapiens, UniProt P25105); assay type: tissue-based; further: in other assays of this panel Not Active means under 50% inhibition at 10 µM
[4] = DRUGMATRIX: Platelet-Derived Growth Factor (PDGF) radioligand binding (ligand: [125I] PDGF); assay type: cell-based; conditions: nih3t3; Not Active = under 50% inhibition at 10 µM
[5] = molecular target: Epidermal growth factor receptor (Homo sapiens, UniProt P00533); assay: DRUGMATRIX: Protein Tyrosine Kinase, EGF Receptor enzyme inhibition (substrate: Poly(Glu:Tyr)); assay type: cell-based, Insect cells; conditions: Not Active = under 50% inhibition at 10 µM; for IC50: insect cells
Sequence of Epidermal growth factor receptor (P00533 whole entry): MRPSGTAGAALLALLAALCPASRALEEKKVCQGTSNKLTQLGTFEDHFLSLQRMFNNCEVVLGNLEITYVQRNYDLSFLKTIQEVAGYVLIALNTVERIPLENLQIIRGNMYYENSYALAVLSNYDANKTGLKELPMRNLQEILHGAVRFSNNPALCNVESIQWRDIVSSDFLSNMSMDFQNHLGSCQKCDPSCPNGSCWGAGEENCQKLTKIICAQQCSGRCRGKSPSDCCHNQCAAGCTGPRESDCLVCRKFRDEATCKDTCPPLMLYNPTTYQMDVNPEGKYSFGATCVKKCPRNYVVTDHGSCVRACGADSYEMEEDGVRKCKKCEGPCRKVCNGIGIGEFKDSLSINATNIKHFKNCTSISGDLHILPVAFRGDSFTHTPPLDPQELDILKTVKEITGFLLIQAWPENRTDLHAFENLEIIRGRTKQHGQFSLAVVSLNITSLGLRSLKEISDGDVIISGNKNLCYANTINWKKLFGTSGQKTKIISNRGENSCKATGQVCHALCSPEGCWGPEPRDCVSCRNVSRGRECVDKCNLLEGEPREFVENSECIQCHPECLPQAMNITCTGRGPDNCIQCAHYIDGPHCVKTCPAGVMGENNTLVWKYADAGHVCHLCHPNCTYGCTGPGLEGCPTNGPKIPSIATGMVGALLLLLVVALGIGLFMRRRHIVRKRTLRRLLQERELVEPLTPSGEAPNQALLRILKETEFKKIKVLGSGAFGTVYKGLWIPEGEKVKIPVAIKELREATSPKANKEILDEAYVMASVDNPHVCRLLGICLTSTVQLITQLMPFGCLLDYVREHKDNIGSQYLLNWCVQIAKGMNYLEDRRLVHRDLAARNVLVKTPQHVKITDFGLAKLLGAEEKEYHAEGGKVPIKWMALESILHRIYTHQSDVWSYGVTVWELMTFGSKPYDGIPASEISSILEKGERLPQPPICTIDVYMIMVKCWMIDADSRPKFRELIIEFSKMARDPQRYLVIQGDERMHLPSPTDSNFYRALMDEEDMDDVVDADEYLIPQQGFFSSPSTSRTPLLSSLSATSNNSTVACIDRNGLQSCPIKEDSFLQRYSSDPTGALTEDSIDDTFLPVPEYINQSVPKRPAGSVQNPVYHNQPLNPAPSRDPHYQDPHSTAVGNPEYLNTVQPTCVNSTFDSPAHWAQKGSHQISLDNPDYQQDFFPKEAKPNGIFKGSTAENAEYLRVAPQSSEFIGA

Sequence of Melanocortin receptor 3 (P41968 whole entry): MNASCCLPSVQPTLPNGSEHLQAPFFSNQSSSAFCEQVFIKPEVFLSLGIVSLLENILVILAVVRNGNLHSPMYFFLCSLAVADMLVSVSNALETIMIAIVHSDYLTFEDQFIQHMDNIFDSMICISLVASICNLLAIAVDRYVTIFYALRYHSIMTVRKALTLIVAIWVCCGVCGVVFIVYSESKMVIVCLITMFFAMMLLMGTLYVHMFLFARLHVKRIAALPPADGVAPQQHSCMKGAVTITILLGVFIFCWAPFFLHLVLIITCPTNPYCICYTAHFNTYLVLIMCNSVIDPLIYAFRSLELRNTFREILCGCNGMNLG
Sequence of Platelet-activating factor receptor (P25105 whole entry): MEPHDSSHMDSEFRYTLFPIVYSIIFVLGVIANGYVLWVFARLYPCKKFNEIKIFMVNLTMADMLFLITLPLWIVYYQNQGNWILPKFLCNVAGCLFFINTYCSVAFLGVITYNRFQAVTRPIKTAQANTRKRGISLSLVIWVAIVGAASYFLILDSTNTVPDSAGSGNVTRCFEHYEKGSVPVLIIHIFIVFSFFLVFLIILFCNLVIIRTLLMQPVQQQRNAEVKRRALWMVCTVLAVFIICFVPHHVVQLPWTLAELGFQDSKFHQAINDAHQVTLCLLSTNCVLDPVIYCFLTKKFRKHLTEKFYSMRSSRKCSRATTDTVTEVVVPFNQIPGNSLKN
Sequence of Sodium-dependent dopamine transporter (Q01959 whole entry): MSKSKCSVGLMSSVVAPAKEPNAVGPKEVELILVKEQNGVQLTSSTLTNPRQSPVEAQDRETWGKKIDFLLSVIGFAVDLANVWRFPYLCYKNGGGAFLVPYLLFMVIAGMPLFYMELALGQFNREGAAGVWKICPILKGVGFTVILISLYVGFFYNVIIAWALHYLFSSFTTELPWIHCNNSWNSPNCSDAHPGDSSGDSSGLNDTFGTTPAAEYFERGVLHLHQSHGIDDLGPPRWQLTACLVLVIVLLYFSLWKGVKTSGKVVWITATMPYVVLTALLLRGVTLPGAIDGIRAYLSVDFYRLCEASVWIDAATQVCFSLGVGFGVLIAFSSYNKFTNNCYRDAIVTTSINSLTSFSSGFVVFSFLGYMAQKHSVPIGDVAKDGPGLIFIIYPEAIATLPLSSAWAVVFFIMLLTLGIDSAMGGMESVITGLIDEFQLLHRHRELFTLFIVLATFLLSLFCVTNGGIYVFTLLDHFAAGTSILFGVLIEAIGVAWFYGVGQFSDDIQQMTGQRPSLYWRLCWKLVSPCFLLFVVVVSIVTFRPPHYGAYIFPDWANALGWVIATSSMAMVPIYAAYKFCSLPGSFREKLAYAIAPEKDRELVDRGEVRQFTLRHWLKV

Compound	IC50 (Substance-K receptor)	IC50 [1]	Ki [1]	IC50 [2]	IC50 (Melanocortin receptor 3)	IC50 [3]	IC50 [4]	Ki [4]	IC50 [5]	pIC50 [2]	pKi [2]	pIC50 (Substance-K receptor; read-out: IC50)	pKi (Substance-K receptor; read-out: Ki)	pIC50 ([5]; read-out: IC50)
CC(=O)OCC(=O)[C@@]1(O)CC[C@H]2[C@@H]3CCC4=CC(=O)CC[C@]4(C)[C@H]3C(=O)C[C@@]21C [CORTISONE ACETATE]	Not Active	Not Active	Not Active	Not Active	Not Active	Not Active	Not Active	Not Active	Not Active					
O=c1ccc2ccccc2o1 [COUMARIN]	Not Active	Not Active	Not Active	Not Active	Not Active	Not Active	Not Active	Not Active	Not Active					
C[C@@H]1C[C@@H]([C@H](O)CC2CC(=O)NC(=O)C2)C(=O)[C@@H](C)C1 [CYCLOHEXIMIDE]	Not Active	Not Active	Not Active	Not Active	Not Active	Not Active	Not Active	Not Active	Not Active					
CN(C)/N=N/c1[nH]cnc1C(N)=O [DACARBAZINE]	Not Active	Not Active	Not Active	Not Active	Not Active	Not Active	Not Active	Not Active	Not Active					
COc1ccc2c(c1)[C@]13CCCC[C@@H]1[C@H](C2)N(C)CC3 [DEXTROMETHORPHAN]	Not Active	Not Active	Not Active	Not Active	Not Active	Not Active	Not Active	Not Active	Not Active					
CC(=O)Nc1c(I)c(NC(C)=O)c(I)c(C(=O)O)c1I [DIATRIZOIC ACID]	Not Active	Not Active	Not Active	Not Active	Not Active	Not Active	Not Active	Not Active	Not Active					
COP(=O)(OC)OC=C(Cl)Cl [DICHLORVOS]	Not Active	Not Active	Not Active	Not Active	Not Active	Not Active	Not Active	Not Active	Not Active					
O=C(O)Cc1ccccc1Nc1c(Cl)cccc1Cl [DICLOFENAC]	Not Active	Not Active	Not Active	Not Active	Not Active	Not Active	Not Active	Not Active	Not Active					
C[C@H]1O[C@@H](O[C@H]2[C@@H](O)C[C@H](O[C@H]3[C@@H](O)C[C@H](O[C@H]4CC[C@@]5(C)[C@H](CC[C@@H]6[C@@H]5CC[C@]5(C)[C@@H](C7=CC(=O)OC7)CC[C@]65O)C4)O[C@@H]3C)O[C@@H]2C)C[C@H](O)[C@@H]1O [DIGITOXIN]	Not Active	Not Active	Not Active	Not Active	Not Active	Not Active	Not Active	Not Active	Not Active					
CCN1CC(CCN2CCOCC2)C(c2ccccc2)(c2ccccc2)C1=O (configuration not stated) [DOXAPRAM]	Not Active	Not Active	Not Active	Not Active	Not Active	Not Active	Not Active	Not Active	Not Active					
Cn1c(=O)c2c(ncn2CC2OCCO2)n(C)c1=O [DOXOFYLLINE]	Not Active	Not Active	Not Active	Not Active	Not Active	Not Active	Not Active	Not Active	Not Active					
COc1cccc2c1C(=O)c1c(O)c3c(c(O)c1C2=O)C[C@@](O)(C(=O)CO)C[C@@H]3O[C@H]1C[C@H](N)[C@H](O)[C@H](C)O1 [DOXORUBICIN]	Not Active	Not Active	Not Active	Not Active	Not Active	Not Active	Not Active	Not Active	Not Active					
COc1cccc2c1C(=O)c1c(O)c3c(c(O)c1C2=O)C[C@@](O)(C(=O)CO)C[C@@H]3O[C@H]1C[C@H](N)[C@@H](O)[C@H](C)O1 [EPIRUBICIN]	Not Active	Not Active	Not Active	Not Active	Not Active	Not Active	Not Active	Not Active	Not Active					
C[C@]12CC[C@@H]3c4ccc(OC(=O)c5ccccc5)cc4CC[C@H]3[C@@H]1CC[C@@H]2O [ESTRADIOL BENZOATE]	Not Active	Not Active	Not Active	Not Active	Not Active	Not Active	Not Active	Not Active	Not Active					
C[C@]12CC[C@@H]3c4ccc(O)cc4CC[C@H]3[C@@H]1CC[C@@H]2O [ESTRADIOL]	Not Active	Not Active	Not Active		Not Active	Not Active	Not Active	Not Active	Not Active	4.83	4.93			
CC[C@@H](CO)NCCN[C@@H](CC)CO [ETHAMBUTOL]	Not Active	Not Active	Not Active	Not Active	Not Active	Not Active	Not Active	Not Active	Not Active					
CC1(C)O[C@@H]2C[C@H]3[C@@H]4C[C@H](F)C5=CC(=O)C=C[C@]5(C)[C@H]4[C@@H](O)C[C@]3(C)[C@]2(C(=O)CO)O1 [FLUNISOLIDE]	Not Active	Not Active	Not Active	Not Active	Not Active	Not Active	Not Active	Not Active	Not Active					
CC1(C)O[C@@H]2C[C@H]3[C@@H]4C[C@H](F)C5=CC(=O)C=C[C@]5(C)[C@@]4(F)[C@@H](O)C[C@]3(C)[C@]2(C(=O)CO)O1 [FLUOCINOLONE ACETONIDE]	Not Active	Not Active	Not Active	Not Active	Not Active	Not Active	Not Active	Not Active	Not Active					
CC1(C)O[C@@H]2C[C@H]3[C@@H]4C[C@H](F)C5=CC(=O)CC[C@]5(C)[C@H]4[C@@H](O)C[C@]3(C)[C@]2(C(=O)CO)O1 [FLURANDRENOLIDE]	Not Active	Not Active	Not Active	Not Active	Not Active	Not Active	Not Active	Not Active	Not Active					
CN(C)c1ccc(C(=C2C=CC(=[N+](C)C)C=C2)c2ccc(N(C)C)cc2)cc1.[Cl-] [GENTIAN VIOLET]		Not Active	Not Active		Not Active	Not Active	Not Active	Not Active		5.39	5.49	5.77	6.25	6.33
Cc1ccc(S(=O)(=O)NC(=O)NN2CC3CCCC3C2)cc1 (configuration not stated) [GLICLAZIDE]	Not Active	Not Active	Not Active	Not Active	Not Active	Not Active	Not Active	Not Active	Not Active					
NC(=O)NO [HYDROXYUREA]	Not Active	Not Active	Not Active	Not Active	Not Active	Not Active	Not Active	Not Active	Not Active					
CC(C)Cc1ccc(C(C)C(=O)O)cc1 (configuration not stated) [IBUPROFEN]	Not Active	Not Active	Not Active	Not Active	Not Active	Not Active	Not Active	Not Active	Not Active					
COc1ccc2c(c1)c(CC(=O)O)c(C)n2C(=O)c1ccc(Cl)cc1 [INDOMETHACIN]	Not Active	Not Active	Not Active	Not Active	Not Active	Not Active	Not Active	Not Active	Not Active					
CCc1c2c(nc3ccc(OC(=O)N4CCC(N5CCCCC5)CC4)cc13)-c1cc3c(c(=O)n1C2)COC(=O)[C@]3(O)CC [IRINOTECAN]	Not Active	Not Active	Not Active	Not Active	Not Active	Not Active	Not Active	Not Active	Not Active					
CC(C(=O)O)c1cccc(C(=O)c2ccccc2)c1 (configuration not stated) [KETOPROFEN]	Not Active	Not Active	Not Active	Not Active	Not Active	Not Active	Not Active	Not Active	Not Active					
